Test results from patent publication US11419865B2, “Method for inducing a sustained immune response” (Cytocom Inc., priority 2016, dated 2022).

Tests used:
MS patients = experiment: multiple sclerosis case reports; type: in vivo, human
women with fibromyalgia = experiment: randomized, double blind, placebo-controlled crossover study, 31 women with fibromyalgia; type: in vivo, human; details: 4.5 mg daily
Text: Thirty-one women with fibromyalgia participated in the randomized, double blind, placebo-controlled, and counterbalanced, crossover study. […]. An intensive longitudinal design was used to measure daily levels of pain. […]; P=0.016). […]. […] […]; P=0.016). […].

[1] = tested on: multiple sclerosis (MS) patients; experiment: double-masked, placebo-controlled crossover pilot trial on quality of life in multiple sclerosis, 80 patients; type: in vivo, human; details: 4.5 mg nightly
Text: RESULTS: Eighty subjects with clinically definite MS were enrolled, and 60 subjects completed the trial. Ten withdrew before completing the first trial period: 8 for personal reasons, 1 for a non-MS-related adverse event, and 1 for perceived benefit. Database management errors occurred in 4 other subjects, and quality of life surveys were incomplete in 6 subjects for unknown reasons. […] LDN was associated with significant improvement on the following mental health quality of life measures: a 3.3-point improvement on the Mental Component Summary score of the Short Form-36 General Health Survey (p=0.04), a 6-point improvement on the Mental Health Inventory (p<0.01), a 1.6-point improvement on the Pain Effects Scale (p=0.04), and a 2.4-point improvement on the Perceived Deficits Questionnaire (p=0.05). […] Further studies with LDN in MS are warranted.

[2] = tested on: Rheumatoid Arthritis patients; experiment: rheumatoid arthritis case reports; type: in vivo, human
Protocol: A person diagnosed with Rheumatoid Arthritis in 2006 and was being treated with methotrexate and plaquenil but patients continued with pain and fatigue. […]
A person diagnosed 5 years ago with RA was treated with Methotrexate 25 mg per week and Remicade 300 U every 6 weeks, the fatigue and pain continued, along with the inflammation and general weakness. Sleep disturbed nightly due to pain in my shoulders and hips. Patient felt their life was not acceptable and none of the immunosuppression drugs were helping. […] Within two weeks patient stopped even ibuprophen. Rheumatoid factor has gone from 127 to 66 in 4 months and has stayed stable. […] Occasionally patient has pain but it is easily controlled with a normal dosage of ibuprophen.
A person, diagnosed with RA in 1999 stayed very active until 2005 on a combination of Methotrexate and Prednisone but was have difficulty maintaining their business due to fatigue and severe joint pain with deformity of their hands and elbows. Patient was told to increase their does and start a second immunomodulating drug. Patient no longer wanted to continue with immunosuppression drug or steroids due to the side effects. […]; they have no pain that can't be handled with aspirin.

HIV = experiment: naltrexone as adjunct therapy, 50 HIV/AIDS patients in Africa with standard of care; type: in vivo, human
Text: Naltrexone as an adjunct therapy with HIV/AIDS patients. […] HIV disease is associated with a new constellation of problems, generally referred to as “non-AIDS morbidity”, and, in the popular press, “premature aging. […] at risk for developing a number of non-AIDS conditions, including cardiovascular disease, cancer, kidney disease, liver disease, osteopenia/osteoporosis and neurocognitive disease (collectively referred to as “serious non-AIDS events”). Malignancies associated with infections such as human papilloma virus (including uro-genital and head and neck cancers), Epstein Barr Virus (including Hodgkins disease), and hepatitis B and C (hepatocellular carcinoma), are also relatively common in HIV-infected adult. […] Subtle elevations in many of these biomarkers are associated with dramatic increases in the risk of subsequent disease, including all-cause mortality For example, as compared to a well-matched uninfected population, treated HIV-infected adults have approximately 50 to 100% higher levels of the inflammatory cytokine interleukin-6 (IL-6)^(32). […] Risk factors for impaired CD4 T-cell recovery include low pre-treatment CD4+ T cell count nadir, co-infection with other viruses such as hepatitis C, older age, and perhaps viral factors (24). […]

[3] = tested on: patients with active Crohn's disease; experiment: 12-week study of 4.5 mg naltrexone/day in active Crohn's disease (17 patients); type: in vivo, human
Protocol: . Infliximab was not allowed for a minimum of 8 weeks prior to study initiation. Other therapy for Crohn's disease that was at a stable dose for 4 weeks prior to enrollment was continued at the same doses. Patients completed the inflammatory bowel disease questionnaire (IBDQ) and the short-form (SF-36) quality of life surveys and CDAI scores were assessed pretreatment, every 4 weeks on therapy and 4 weeks after completion of the study drug. Drug was administered by mouth each evening for a 12-week period. RESULTS: Seventeen patients with a mean CDAI score of 356+/−27 were enrolled.

O=C1CC[C@@]2(O)[C@H]3Cc4ccc(O)c5c4[C@@]2(CCN3CC2CC2)[C@H]1O5 [Immediate release naltrexone, naltrexone]
first three months, person, Secondary Progressive MS (MS patients; 1.5 mg at bedtime increasing to 3 mg from July of 2005): no real improvement in the first three months accept no flair of MS
disease course, person, relapsing remitting MS (MS patients; 1.5 mg increasing to 4.5 mg nightly with progesterone, estriol, Cortef): back at work for 5 years without an exacerbation
MRI, person, secondary-progressive multiple sclerosis (SPMS) (MS patients; 1.5 mg then 3 mg from July of 2009, January of 2011): MRI showed reduced plaque and lesion size
disease course, person, fast deteriorating M.S. (MS patients; 1.5 mg, 3 mg, then 4.5 mg for seven months): the disease has stabilized and the progressive deterioration has stopped
disease course, person, M.S. of 35 years (MS patients; 3 mg for 30 days then 4.5 mg at bedtime, over three months): regained their ability to see and walk and their cognitive ability improved as well
mobility, person four, Relapsing Remitting MS, wheelchair bound (MS patients; 3 mg nightly from July 2004): walking again with a cane for assistance within 10 days
relapses, person two, Relapsing Remitting MS (MS patients; 4.5 mg at bedtime since 2002): has not had a one relapse
side effects, person four, Relapsing Remitting MS (MS patients; 4.5 mg nightly from August of 2004): minimal side effects some insomnia
relapses, person four, Relapsing Remitting MS (MS patients; 4.5 mg nightly, last update 2010): no relapses
MRI, person two, Relapsing Remitting MS (MS patients; 4.5 mg, over the last 8 years): no progression of the disease
mobility, person, Secondary Progressive MS (MS patients; months 3 to 6, later 4.5 mg): upgraded from wheelchair to cane
fatigue or sleep (women with fibromyalgia): not improved fatigue or sleep
tolerability and side effects (women with fibromyalgia): rated equally tolerable as placebo, and no serious side effects were reported
mood (women with fibromyalgia; P=0.039): improved mood
general satisfaction with life (women with fibromyalgia; P=0.045): improved general satisfaction with life
participants meeting the criteria for response (women with fibromyalgia; placebo 11%, P=0.05): Thirty-two
tolerability and serious adverse events [1]: well tolerated, and serious adverse events did not occur
improvement on the Mental Component Summary score of the Short Form-36 General Health Survey ([1]; 8 weeks, p=0.04): 3.3 point
medication use, person, Rheumatoid Arthritis ([2]; 1.5 mg titrated up to 4.5 mg from April of 2009): Successfully discontinued methotrexate March of 2010 and then discontinued plaquenil in October of 2010
fatigue, person, RA ([2]; 4.5 mg at bedtime): Fatigue is gone
Rheumatoid factor, person, RA ([2]; 4.5 mg at bedtime, from 127 in 4 months): 66
medication use, person, RA ([2]; 4.5 mg at bedtime, within 7 days): stooped all traditional RA medications
disease course, person, RA ([2]; 4.5 mg with diet, supplements, hormones etc., 7 years later): RA has not advanced
inflammatory cytokine and Th1/Th2 balance (HIV; adjunct to standard of care (ART)): Secreased inflammatory cytokine and a shift from Th1 (pro-inflammatory) to Th2 (anti-inflammatory)
opportunistic infection and quality of life (HIV; adjunct to standard of care, long term): reduction in opportunistic infection and a higher quality of live
pain scores NRS (out of 10), person one, CRPS and EDS (CRPS patients; 3 mg once a day, then 4.5 mg per day, from (7-10)/10): 3-5
allodynia and sensitivity, person one, CRPS (CRPS patients; 3 mg then 4.5 mg per day): decrease in allodynia, as well as a decrease in sensitivity to touch and temperature change
dystonia, initial treatment, person one, CRPS (CRPS patients; 3 mg then 4.5 mg per day, before surgery): no effect on the dystonia
side effects, person three, CRPS (CRPS patients; 4.5 mg per day): No side effects
average pain on the Numeric Rating Scale (NRS), person three, CRPS (CRPS patients; 4.5 mg per day at night, before 8 to 10): 5 to 6
requirements for intravenous ketamine infusions, person three, CRPS (CRPS patients; 4.5 mg per day, by March of 2012, 6 week intervals): not as frequent
walking, person three, CRPS (CRPS patients; 4.5 mg per day, cane used continuously since 2006): able to walk without a cane
dystonic spasms, person three, CRPS (CRPS patients; 4.5 mg per day, within 2 months): dystonic spasms discontinued
post-operative pain NRS (out of 10), person one, CRPS (CRPS patients; 3 weeks after resuming drug): 4-6
side effects, person one, CRPS (CRPS patients; 18 months): No side effects
fixed dystonia at cast removal, person one, CRPS (CRPS patients; after ankle reinforcement surgery, on drug): remission of the leg's fixed dystonia
CRPS symptoms, person one (CRPS patients; maintained for 18 months): CRPS symptoms have resolved completely
CDAI scores ([3]; 4.5 mg/day by mouth each evening, 12 weeks, baseline mean 356+/−27, P=0.01): decreased significantly
laboratory abnormalities ([3]; 4.5 mg/day, 12 weeks): No laboratory abnormalities were noted
patients with response to therapy ([3]; 4.5 mg/day, 12 weeks): Eighty-nine
patients achieving remission ([3]; 4.5 mg/day, 12 weeks, P<0.001): 67%
CDAI scores after end of therapy ([3]; 4 weeks after completing therapy): remained lower than baseline
quality of life surveys (IBDQ, SF-36) ([3]; compared with baseline): Improvement was recorded in both quality of life surveys
